Results on three molecules are retold here after patent US20020138856A1, “Compositions and methods useful for treatment of depressive disorder based on an animal model” (Northwestern University, priority 1998, published 2002).

“Also recorded” adds a separate entry of the source.

In one assay the test system is WMI rats. Briefly: Forced swim test (FST) immobility before and after drug administration, WMI rats. Format: in vivo, rat. Conditions: for effect on alleviating depression (FST immobility): desipramine administered three times within 24 hours. The text has this: (§1) FIG. 6 is a graph depicting the immobility in the forced swim test of 14 week-old animals before and after administration of either desipramine, fluoxetine, or water in WMI and WLI animals. Shaded squares and circles indicate immobility after treatment, unshaded squares and circles indicate immobility before treatment, squares indicate WMI animals, and circles indicate WLI animals.
(§2) The main test of behavior in the rats of the invention is the FST. The general parameters governing this test are as follows, it being understood that variations of the test are permissible within acceptable bounds. The test utilizes a glass water tank 30 cm in diameter and 45 cm tall wherein the water level is 15 cm from the top and the water temperature is 25° C. The procedure for the test is adapted from Porsolt et al. and Detke et al., as described in Detke et al., 1995, Psychopharm. 121:66-72). Rats are individually placed in the water tank for 15 minutes and are then removed from the tank and returned to their cages. […] This 5 minute test session is recorded on videotape. The performance of the rat on the tape is analyzed and subsequently scored using the scoring system developed by Detke et al. (1995, Psychopharm. 121:66-72) by a trained observer, who is unaware as to the various treatment conditions of the rats. […] The following behaviors are recorded: immobility, swimming, and climbing. The rats are scored at 5 second intervals, thus, there are 12 intervals per minute sampled. […] By way of example, if a rat was scored as immobile at 13 of the […], the FST score would be 13. […]
(§3) The WMI and WLI rats of the invention are useful for screening compounds effective for modulation, preferably, alleviation of depression and other behavioral and depressive disorders. […] WMI and WLI rats are administered a test compound or a placebo at a dosage, a route of administration and for a period of time which is determined by the artisan skilled in such procedures, following standard protocols such as those described, for example, in Remington's Pharmaceutical Sciences, Mack Publishing Co., Easton, Pa., 1985. […]

In another assay the test system is WLI rats. Description: Forced swim test (FST) immobility before and after drug administration, WLI rats. Format: in vivo, rat.
Source text: as §1, §2, §3

For another assay, the system named is WKY rats. Conditions: chronic and subacute treatment (three times per day between first and third swim); cited from earlier work.

As for `CNCCCN1c2ccccc2CCc2ccccc21` [Desipramine, desipramine], the “immobility time in the forced swim test after administration” value with WMI rats (14 week-old, before treatment about nineteen 5-second intervals, FIG. 6) is reported as “about five”; with WLI rats (14 week-old, before treatment about nine 5-second intervals, change not significant, FIG. 6), “about six”. The “effect on alleviating depression (FST immobility)” value in the assay on WMI rats is on record as “responsive; also recorded: effectively alleviated depression”; in the assay with WLI rats, “do not respond; also recorded: resistant to treatment”. Also, in the assay with WKY rats, the “effect on depressive behavior (immobility, struggling in forced swim test)” value is “decreased the depressive behavior”.

Take `CNCCC(Oc1ccc(C(F)(F)F)cc1)c1ccccc1` (centres unmarked) [Fluoxetine, fluoxetine]: the “effect on alleviating depression (FST immobility)” value in the assay on WMI rats and with WLI rats was “virtually no effect” throughout.

As to `CN(C)CCCN1c2ccccc2CCc2ccccc21` [imipramine], the “effect on depressive behavior (immobility, struggling in forced swim test)” value in the assay with WKY rats is given as “decreased the depressive behavior”.
